This note sets out measurements from ChEMBL document CHEMBL1255175, “Synthesis, antimicrobial, and mosquito larvicidal activity of 1-aryl-4-methyl-3,6-bis-(5-methylisoxazol-3-yl)-2-thioxo-2,3,6,10b-tetrahydro-1H-pyrimido[5,4-c]quinolin-5-ones” (2010).

In brackets after ≈: the same amount, converted by molar mass.

Common to all, as to format: functional
The subject of assay [1] is Fusarium verticillioides. The assay can be described thus: Antifungal activity against Fusarium moniliforme MTCC 1848 at 100 ug/ml. The settings on record: read-out: DIZ.
The test system of assay [2] is Curvularia lunata. The assay can be described thus: Antifungal activity against Curvularia lunata MTCC 2030 at 100 ug/ml. The settings on record: read-out: DIZ.
A further assay relates to Staphylococcus aureus. The assay can be described thus: Antimicrobial activity against Staphylococcus aureus MTCC 96.
Assay [3] is described as follows: Antifungal activity against Chrysosporium tropicum MTCC 2821 at 30 ug/ml.
Assay [4] deals with Fusarium verticillioides. The assay can be described thus: Antifungal activity against Fusarium moniliforme MTCC 1848 at 30 ug/ml. The settings on record: read-out: DIZ.
Assay [5] relates to Rhizopus arrhizus. In words: Antifungal activity against Rhizopus oryzae MTCC 262 at 30 ug/ml. The settings on record: read-out: DIZ.
In another assay the test system is Culex quinquefasciatus. The assay can be described thus: Insecticidal activity against Culex quinquefasciatus 4th instar larvae. To be noted: for LC50: Culex quinquefasciatus.
In assay [6] the test system is Chromobacterium violaceum. In words: Antimicrobial activity against Chromobacterium violaceum MTCC 2656.
For assay [7], the system named is Curvularia lunata. In words: Antifungal activity against Curvularia lunata MTCC 2030 at 30 ug/ml. To be noted: read-out: DIZ.
Assay [8] deals with Lysinibacillus sphaericus. The assay can be described thus: Antimicrobial activity against Bacillus sphaericus MTCC 511.
The subject of assay [9] is Rhizopus arrhizus. The assay can be described thus: Antifungal activity against Rhizopus oryzae MTCC 262 at 100 ug/ml. To be noted: read-out: DIZ.
Assay [10] has as its system Aspergillus niger. In words: Antifungal activity against Aspergillus niger MTCC 282 at 100 ug/ml. The settings on record: read-out: DIZ.
The subject of a further assay is Pseudomonas aeruginosa. In words: Antimicrobial activity against Pseudomonas aeruginosa MTCC 741.
The test system of another assay is Klebsiella aerogenes. In words: Antimicrobial activity against Klebsiella aerogenes MTCC 39.
For a further assay, the system named is Bacillus subtilis. The assay can be described thus: Antimicrobial activity against Bacillus subtilis MTCC 441.
Assay [11] concerns Aspergillus niger. In words: Antifungal activity against Aspergillus niger MTCC 282 at 30 ug/ml. To be noted: read-out: DIZ.
Assay [12] is described as follows: Antifungal activity against Chrysosporium tropicum MTCC 2821 at 100 ug/ml.

In general, MIC refers to the least concentration at which growth counts as inhibited. What is called LC50 is the concentration lethal to half of the exposed cells or organisms. A lower LC50 goes with greater toxicity. For the compound `COc1cccc(N2C(=S)N(c3cc(C)on3)C(C)=C3C(=O)N(c4cc(C)on4)c4ccccc4C32)c1` (stereo not given), the zone of inhibition at 100 µg/mL in the assay on Fusarium verticillioides [1] came to 60 mm; in the assay on Curvularia lunata [2] it was 55 mm; with Rhizopus arrhizus [9], 65 mm; in the assay on Aspergillus niger [10], 40 mm. The MIC amounted to 12 µg/mL (≈ 23.4 µM) with Staphylococcus aureus; 11 µg/mL (≈ 21.4 µM) in [6]; 18 µg/mL (≈ 35 µM) in [8]; 8 µg/mL (≈ 15.6 µM) against Pseudomonas aeruginosa; 13 µg/mL (≈ 25.3 µM) in the assay on Klebsiella aerogenes; 18 µg/mL (≈ 35 µM) against Bacillus subtilis. For the same compound, the inhibition zone (IZ) in assay [3] was found to be 28 mm; in assay [12], 40 mm. Also, the zone of inhibition at 30 µg/mL was 35 mm in the assay on Fusarium verticillioides [4], 40 mm in the assay with Rhizopus arrhizus [5], 35 mm in the assay on Curvularia lunata [7] and 20 mm in the assay with Aspergillus niger [11]. The compound further displayed an LC90 with Culex quinquefasciatus of 2.41 µg/mL (≈ 4.69 µM). In the assay on Culex quinquefasciatus, this compound returned an LC50 of 1.25 µg/mL (≈ 2.43 µM).
Turning to `O=C(O)c1cn(C2CC2)c2cc(N3CCNCC3)c(F)cc2c1=O` [CIPROFLOXACIN], the MIC worked out at 25 µg/mL (≈ 75.4 µM) in assay [6], 20 µg/mL (≈ 60.4 µM) in [8], 30 µg/mL (≈ 90.5 µM) in the assay on Pseudomonas aeruginosa and 20 µg/mL (≈ 60.4 µM) in the assay with Bacillus subtilis.
As to `CC1=C2C(=O)N(c3cc(C)on3)c3ccccc3C2N(c2ccc(C)cc2)C(=S)N1c1cc(C)on1` (stereo not given), the zone of inhibition at 100 µg/mL in the assay with Fusarium verticillioides [1] is 60 mm; with Curvularia lunata [2], 65 mm; in the assay on Rhizopus arrhizus [9], 65 mm; in the assay on Aspergillus niger [10], 60 mm. In addition, the MIC against Staphylococcus aureus was determined as 10 µg/mL (≈ 20.1 µM); in assay [6] it was 6 µg/mL (≈ 12.1 µM); in assay [8], 11 µg/mL (≈ 22.1 µM); with Pseudomonas aeruginosa it was 10 µg/mL (≈ 20.1 µM); against Klebsiella aerogenes it was 8 µg/mL (≈ 16.1 µM); in the assay with Bacillus subtilis, 16 µg/mL (≈ 32.2 µM). This compound had an inhibition zone (IZ) in assay [3] of 40 mm. Further, the zone of inhibition at 30 µg/mL came to 45 mm in the assay on Fusarium verticillioides [4], 45 mm with Rhizopus arrhizus [5], 45 mm in the assay with Curvularia lunata [7] and 40 mm in the assay on Aspergillus niger [11]. Further, the LC90 in the assay with Culex quinquefasciatus was 2.41 µg/mL (≈ 4.84 µM). This compound had an LC50 with Culex quinquefasciatus of 0.85 µg/mL (≈ 1.71 µM).
With `CC1=C2C(=O)N(c3cc(C)on3)c3ccccc3C2N(c2ccc(Br)cc2)C(=S)N1c1cc(C)on1` (stereo not given), the zone of inhibition at 100 µg/mL in the assay on Fusarium verticillioides [1] stood at 40 mm; in the assay on Curvularia lunata [2], 45 mm; in the assay with Rhizopus arrhizus [9] it was 45 mm; in the assay with Aspergillus niger [10], 50 mm. Besides, the MIC against Staphylococcus aureus worked out at 9 µg/mL (≈ 16 µM); in assay [6], 5 µg/mL (≈ 8.89 µM); in assay [8], 8 µg/mL (≈ 14.2 µM); in the assay on Pseudomonas aeruginosa, 9 µg/mL (≈ 16 µM); against Klebsiella aerogenes, 7 µg/mL (≈ 12.4 µM); against Bacillus subtilis, 6 µg/mL (≈ 10.7 µM). In addition, the values for the inhibition zone (IZ) in assay [3] and in assay [12] were 25 mm and 45 mm, respectively. Moreover, the zone of inhibition at 30 µg/mL came out at 25 mm in the assay on Fusarium verticillioides [4], 39 mm in the assay on Rhizopus arrhizus [5], 35 mm in the assay on Curvularia lunata [7] and 40 mm in the assay on Aspergillus niger [11]. The LC90 in the assay on Culex quinquefasciatus turned out to be 1.8 µg/mL (≈ 3.2 µM). Further, the LC50 in the assay on Culex quinquefasciatus worked out at 0.88 µg/mL (≈ 1.56 µM).
As to `CC1=C2C(=O)N(c3cc(C)on3)c3ccccc3C2N(c2ccccc2)C(=S)N1c1cc(C)on1` (stereo not given), the zone of inhibition at 100 µg/mL with Fusarium verticillioides [1] was 45 mm; in the assay on Curvularia lunata [2], 40 mm; with Rhizopus arrhizus [9], 50 mm; in the assay with Aspergillus niger [10], 45 mm. Also, the minimal inhibitory concentration (MIC) amounted to 15 µg/mL (≈ 31 µM) in the assay with Staphylococcus aureus; 18 µg/mL (≈ 37.2 µM) in assay [6]; 15 µg/mL (≈ 31 µM) in assay [8]; 20 µg/mL (≈ 41.4 µM) with Pseudomonas aeruginosa; 13 µg/mL (≈ 26.9 µM) against Klebsiella aerogenes; 19 µg/mL (≈ 39.3 µM) in the assay on Bacillus subtilis. Further, the values for the inhibition zone (IZ) in [3] and in assay [12] were 30 mm and 45 mm, respectively. Also, the zone of inhibition at 30 µg/mL with Fusarium verticillioides [4] worked out at 30 mm; with Rhizopus arrhizus [5] it was 40 mm; in the assay on Curvularia lunata [7], 35 mm; with Aspergillus niger [11], 25 mm. Also, the LC90 with Culex quinquefasciatus stood at 3.1 µg/mL (≈ 6.41 µM). In the assay with Culex quinquefasciatus, this compound gave an LC50 of 1.02 µg/mL (≈ 2.11 µM).
Take `CC1=C2C(=O)N(c3cc(C)on3)c3ccccc3C2N(c2ccccc2Cl)C(=S)N1c1cc(C)on1` (stereo not given): the zone of inhibition at 100 µg/mL in the assay on Fusarium verticillioides [1] was found to be 45 mm; in the assay on Curvularia lunata [2] it was 55 mm; in the assay with Rhizopus arrhizus [9] it was 50 mm; in the assay with Aspergillus niger [10] it was 55 mm. The MIC came to 9 µg/mL (≈ 17.4 µM) against Staphylococcus aureus; 6 µg/mL (≈ 11.6 µM) in assay [6]; 10 µg/mL (≈ 19.3 µM) in assay [8]; 5 µg/mL (≈ 9.65 µM) in the assay with Pseudomonas aeruginosa; 8 µg/mL (≈ 15.4 µM) against Klebsiella aerogenes; 8 µg/mL (≈ 15.4 µM) against Bacillus subtilis. For the same compound, the inhibition zone (IZ) in [3] turned out to be 25 mm; in [12], 40 mm. The zone of inhibition at 30 µg/mL in the assay on Fusarium verticillioides [4] is 30 mm; in the assay on Rhizopus arrhizus [5] it was 35 mm; with Curvularia lunata [7], 40 mm; with Aspergillus niger [11], 30 mm. In addition, the LC90 in the assay with Culex quinquefasciatus was determined as 1 µg/mL (≈ 1.93 µM). In the assay with Culex quinquefasciatus, this compound had an LC50 of 0.98 µg/mL (≈ 1.89 µM).
Consider `CC1=C2C(=O)N(c3cc(C)on3)c3ccccc3C2N(Cc2ccccc2)C(=S)N1c1cc(C)on1` (stereo not given), for which the zone of inhibition at 100 µg/mL in the assay on Fusarium verticillioides [1] stood at 55 mm; in the assay with Curvularia lunata [2], 55 mm; in the assay on Rhizopus arrhizus [9], 59 mm; in the assay with Aspergillus niger [10], 61 mm. The MIC came to 25 µg/mL (≈ 50.2 µM) against Staphylococcus aureus; 18 µg/mL (≈ 36.2 µM) in assay [6]; 18 µg/mL (≈ 36.2 µM) in [8]; 20 µg/mL (≈ 40.2 µM) in the assay with Pseudomonas aeruginosa; 15 µg/mL (≈ 30.1 µM) with Klebsiella aerogenes; 22 µg/mL (≈ 44.2 µM) against Bacillus subtilis. In [3], this compound registered an inhibition zone (IZ) of 30 mm. The zone of inhibition at 30 µg/mL in the assay on Fusarium verticillioides [4] was 32 mm; with Rhizopus arrhizus [5] it was 35 mm; in the assay with Curvularia lunata [7] it was 30 mm; in the assay on Aspergillus niger [11], 31 mm. The LC90 with Culex quinquefasciatus stood at 1.59 µg/mL (≈ 3.2 µM). The compound also registered an LC50 in the assay on Culex quinquefasciatus of 2.27 µg/mL (≈ 4.56 µM).
As to `COc1ccc(N2C(=S)N(c3cc(C)on3)C(C)=C3C(=O)N(c4cc(C)on4)c4ccccc4C32)cc1` (stereo not given), the zone of inhibition at 100 µg/mL in the assay with Fusarium verticillioides [1] is 60 mm; in the assay on Curvularia lunata [2], 60 mm; in the assay on Rhizopus arrhizus [9], 65 mm; in the assay on Aspergillus niger [10], 60 mm. Also, the MIC turned out to be 10 µg/mL (≈ 19.5 µM) in the assay with Staphylococcus aureus; 18 µg/mL (≈ 35 µM) in [6]; 15 µg/mL (≈ 29.2 µM) in [8]; 15 µg/mL (≈ 29.2 µM) against Pseudomonas aeruginosa; 14 µg/mL (≈ 27.3 µM) against Klebsiella aerogenes; 20 µg/mL (≈ 38.9 µM) against Bacillus subtilis. Further, the inhibition zone (IZ) in assay [3] came out at 40 mm. Also, the zone of inhibition at 30 µg/mL in the assay with Fusarium verticillioides [4] stood at 35 mm; in the assay with Rhizopus arrhizus [5], 45 mm; in the assay with Curvularia lunata [7], 40 mm; in the assay with Aspergillus niger [11], 35 mm. Besides, the LC90 with Culex quinquefasciatus is 3.65 µg/mL (≈ 7.11 µM). In the assay on Culex quinquefasciatus, this compound gave an LC50 of 2.09 µg/mL (≈ 4.07 µM).
For the compound `Clc1ccccc1C(c1ccccc1)(c1ccccc1)n1ccnc1` [CLOTRIMAZOLE], the zone of inhibition at 100 µg/mL with Fusarium verticillioides [1] came out at 25 mm; with Curvularia lunata [2], 35 mm; in the assay with Rhizopus arrhizus [9], 33 mm; in the assay on Aspergillus niger [10], 26 mm. The compound further yielded an inhibition zone (IZ) in [12] of 30 mm.
Regarding `CC1=C2C(=O)N(c3cc(C)on3)c3ccccc3C2N(c2ccc(Cl)cc2)C(=S)N1c1cc(C)on1` (stereo not given), the zone of inhibition at 100 µg/mL with Fusarium verticillioides [1] came to 45 mm; in the assay with Curvularia lunata [2], 50 mm; in the assay with Rhizopus arrhizus [9], 50 mm; in the assay with Aspergillus niger [10] it was 40 mm. Also, the MIC with Staphylococcus aureus is 15 µg/mL (≈ 29 µM); in assay [6], 13 µg/mL (≈ 25.1 µM); in assay [8], 15 µg/mL (≈ 29 µM); against Pseudomonas aeruginosa, 20 µg/mL (≈ 38.6 µM); with Klebsiella aerogenes, 15 µg/mL (≈ 29 µM); with Bacillus subtilis, 16 µg/mL (≈ 30.9 µM). Also, the inhibition zone (IZ) in assay [3] came to 30 mm; in assay [12] it was 45 mm. Further, the zone of inhibition at 30 µg/mL worked out at 30 mm in the assay with Fusarium verticillioides [4], 40 mm in the assay on Rhizopus arrhizus [5], 35 mm in the assay with Curvularia lunata [7] and 25 mm with Aspergillus niger [11]. The LC90 with Culex quinquefasciatus worked out at 4 µg/mL (≈ 7.72 µM). The LC50 in the assay on Culex quinquefasciatus is 1.01 µg/mL (≈ 1.95 µM).
